Results published in patent publication US7132455B2, “Phthalamide derivatives” (Bayer Cropscience AG, priority 2002, dated 2006).

How the values were obtained:
[1] = system: larva of Cnaphalocrocis medinalis Guenee; test: Test against larva of Cnaphalocrocis medinalis Guenee (systemic, root uptake by paddy rice); format: in vivo; details: 20 ppm concentration of effective component; rice root parts in diluted solution, foliage fed to second instar larvae; after 7 days; 25° C.
Source text: Test Against Larva of Cnaphalocrocis medinalis Guenee Root parts of paddy rice (variety: […]) cultivated to 4 to 5 leaf stage were put in a brown bottle filled with the diluted aqueous solution of the prescribed concentration of the active compound prepared in the same manner as in the above-mentioned Biological Test Example 1. Three days after the treatment with the agent, 1⁄3 amount of rice plant was collected and their foliage part was cut in 4 to 5 cm length, which were put in a dish with 9 cm diameter with a sheet of filter paper wetted with 2 mL of water. Five larvae of Cnaphalocrocis medinalis Guenee at the second instar were put in the dish which was placed in a room at constant temperature of 25° C. After 2 and 4 days, each rest (each 1⁄3 amount) of foliage parts of rice plant were cut in the same manner and added to the dish. After 7 days the number of dead larvae was counted and the rate of death was calculated. In this test the results of 2 dishes at 1 section were averaged.

[2] = system: larva of Spodoptera litura; test: Test against larva of Spodoptera litura (leaf dip, sweet potato leaves); format: in vivo; details: 20 ppm concentration of effective component; third instar larvae on treated sweet potato leaves; after 7 days; 25° C.
Experimental: Test against larva of Spodoptera litura
In order to make an appropriate formulation of an active compound 1 part by weight of the active compound was mixed with the above-mentioned amount of solvent containing the above-mentioned amount of emulsifier and the mixture was diluted with water to a prescribed concentration.
Leaves of sweet potato were soaked in the test agent diluted to a prescribed concentration with water, dried in the air and put in a dish of 9 cm diameter. 10 larvae of Spodoptera litura at the third instar were placed on the leaves and kept in a room at constant temperature of 25° C. After 2 and 4 days further leaves of sweet potato were added and after 7 days the number of dead larvae was counted and the rate of death was calculated.
In this test the results of 2 dishes at 1 section were averaged.

CSCC(C)NC(=O)c1c(OS(C)(=O)=O)cccc1C(=O)Nc1ccc(C(F)(C(F)(F)F)C(F)(F)F)cc1 (centres unmarked) [compound 5, N^1-(4-heptafluoroisopropylphenyl)-N^2-[1-methyl-2-(methylthio)ethyl]-3-methanesulfonyloxyphthalamide]
rate of death [1]: 100%
rate of death [2]: 100%

CSCC(C)NC(=O)c1c(OS(C)(=O)=O)cccc1C(=O)Nc1ccc(OC(F)(F)F)cc1C (centres unmarked) [compound 6, N^2-[1-methyl-2-(methylthio)ethyl]-N^1-(4-trifluoromethoxy-2-methylphenyl)-3-methanesulfonyloxyphthalamide]
rate of death [2]: 100%

CSCC(C)NC(=O)c1c(OS(C)(=O)=O)cccc1C(=O)Nc1ccc(C(F)(C(F)(F)F)C(F)(F)F)cc1C (centres unmarked) [compound 7, N^1-(4-heptafluoroisopropyl-2-methylphenyl)-N^2-[1-methyl-2-(methylthio)-ethyl]-3-methanesulfonyloxyphthalamide]
rate of death [1]: 100%
rate of death [2]: 100%

CSCC(C)(C)NC(=O)c1c(OS(C)(=O)=O)cccc1C(=O)Nc1ccc(C(F)(C(F)(F)F)C(F)(F)F)cc1C [compound 10, N^2-[1,1-dimethyl-2-(methylthio)ethyl]-N^1-(4-heptafluoroisopropyl-2-methylphenyl)-3-methanesulfonyloxyphthalamide]
rate of death [1]: 100%
rate of death [2]: 100%

Cc1cc(C(F)(C(F)(F)F)C(F)(F)F)ccc1NC(=O)c1cccc(OS(C)(=O)=O)c1C(=O)NC(C)(C)C[S+](C)[O-] (centres unmarked) [compound 11, N^2-[1,1-dimethyl-2-(methylsulfinyl)ethyl]-N^1-(4-heptafluoroisopropyl-2-methylphenyl)-3-methanesulfonyloxyphthalamide]
rate of death [1]: 100%
rate of death [2]: 100%

Cc1cc(C(F)(C(F)(F)F)C(F)(F)F)ccc1NC(=O)c1cccc(OS(C)(=O)=O)c1C(=O)NC(C)(C)CS(C)(=O)=O [compound 12, N^2-[1,1-dimethyl-2-(methylsulfonyl)ethyl]-N^1-(4-heptafluoroisopropyl-2-methylphenyl)-3-methanesulfonyloxyphthalamide]
rate of death [1]: 100%
rate of death [2]: 100%

CCS(=O)(=O)Oc1cccc(C(=O)Nc2ccc(C(F)(C(F)(F)F)C(F)(F)F)cc2C)c1C(=O)NC(C)CSC (centres unmarked) [compound 14, N^1-(4-heptafluoroisopropyl-2-methylphenyl)-N^2-[1-methyl-2-(methylthio)ethyl]-3-ethanesulfonyloxyphthalamide]
rate of death [2]: 100%

CCS(=O)(=O)Oc1cccc(C(=O)Nc2ccc(C(F)(C(F)(F)F)C(F)(F)F)cc2C)c1C(=O)NC(C)(C)CSC [compound 17, N^2-[1,1-dimethyl-2-(methylthio)ethyl]-N^1-(4-heptafluoroisopropyl-2-methylphenyl)-3-ethanesulfonyloxyphthalamide]
rate of death [2]: 100%

CSCC(C)NC(=O)c1c(OS(=O)(=O)C(F)(F)F)cccc1C(=O)Nc1ccc(C(F)(C(F)(F)F)C(F)(F)F)cc1C (centres unmarked) [compound 21, N^1-(4-heptafluoroisopropyl-2-methylphenyl)-N^2-[1-methyl-2-(methylthio)ethyl]-3-trifluoromethanesulfonyloxyphthalamide]
rate of death [2]: 100%

CSCC(C)(C)NC(=O)c1c(OS(C)(=O)=O)cccc1C(=O)Nc1ccc(Cl)c(Cl)c1Cl [compound 24, N^2-[1,1-dimethyl-2-(methylthio)ethyl]-N^1-(2,3,4-trichlorophenyl)-3-methanesulfonyloxyphthalamide]
rate of death [2]: 100%

Cc1cc(C(F)(C(F)(F)F)C(F)(F)F)ccc1NC(=O)c1cccc(OS(C)(=O)=O)c1C(=O)NC(C)C [compound no. 1, N^1(4-heptafluoroisopropyl-2-methylphenyl)-N-2-isopropyl-3-methanesulfonyloxyphthalamide]
rate of death [1]: 100%
rate of death [2]: 100%
